Columns and labels:
[1] = tested on: HCT116-MTAP-KO (MTAP null) cells; assay: Proliferation inhibition of HCT116 MTAP-KO cells in vitro (CellTiter Glo, 6 days); format: cell-based; conditions: HCT116-MTAP null, 144 h, read-out: Cell proliferation inhibition rate HCT116-MTAP null IC50 (nm)
[2] = tested on: HCT116 MTAP WT cells; assay: Proliferation inhibition of HCT116 cells in vitro (CellTiter Glo, 6 days); format: cell-based; conditions: Homo sapiens, HCT-116, 144 h, read-out: Cell proliferation inhibition rate HCT116 MTAP WT IC50 (nm)

Row | Compound | IC50 [1] [nM] | IC50 [2] [nM]
1 | Cc1ncn2c1c(N)nc1cc(F)c(C(=O)N(Cc3cn4ccccc4n3)c3cnn(C)c3C)cc12 [Example 255] | 100 to 1000 | 1000 to 10000
2 | Cc1ncn2c1c(N)nc1cc(F)c(C(=O)N(Cc3cn4ccccc4n3)c3cnn(C)c3)cc12 [Example 257] | 100 to 1000 | 1000 to 10000
3 | CCN(Cc1cn2cc(-c3cnn(C)c3)ccc2n1)C(=O)c1cc2c(cc1F)nc(N)c1c(C)ncn12 [Example 258] | 100 to 1000 | 1000 to 10000
4 | Cc1ncn2c1c(N)nc1cc(F)c(C(=O)N(Cc3cn4cc(C(F)(F)F)ccc4n3)c3cnn(C)c3)cc12 [Example 259] | < 100 | 1000 to 10000
5 | Cc1ncn2c1c(N)nc1cc(F)c(C(=O)N(Cc3cn4ccccc4n3)C3CCC3O)cc12 (stereo not drawn) [Example 261] | 100 to 1000 | 1000 to 10000
6 | Cc1ncn2c1c(N)nc1cc(F)c(C(=O)N(Cc3cn4ccccc4n3)c3cnn(C)n3)cc12 [Example 262] | < 100 | 1000 to 10000
7 | CCN(Cc1cn2cc(OC)ccc2n1)C(=O)c1cc2c(cc1F)nc(N)c1c(C)ncn12 [Example 263] | 100 to 1000 | 1000 to 10000
8 | Cc1ncn2c1c(N)nc1cc(F)c(C(=O)N(CCC#N)Cc3cn4ccccc4n3)cc12 [Example 264] | 100 to 1000 | 1000 to 10000
9 | CCN(Cc1cn2cc(F)ccc2n1)C(=O)c1cc2c(cc1F)nc(N)c1c(C)ncn12 [Example 267] | < 100 | 1000 to 10000
10 | CCN(Cc1cn2ccccc2n1)C(=O)c1cc2c(cc1C)nc(N)c1cnc(C)n12 [Example 268] | 100 to 1000 | 1000 to 10000
11 | Cc1ncn2c1c(N)nc1cc(F)c(C(=O)N(Cc3nc4ccc(C(F)(F)F)cc4[nH]3)CC(C)C)cc12 [Example 269] | 100 to 1000 | 1000 to 10000
12 | COCC(C)N(Cc1cn2ccccc2n1)C(=O)c1cc2c(cc1F)nc(N)c1c(C)ncn12 (stereo not drawn) [Example 271] | < 100 | 1000 to 10000
13 | CCN(Cc1cn2c(C)cccc2n1)C(=O)c1cc2c(cc1F)nc(N)c1c(C)ncn12 [Example 272] | 100 to 1000 | 1000 to 10000
14 | COC1CC(N(Cc2cn3ccccc3n2)C(=O)c2cc3c(cc2F)nc(N)c2c(C)ncn23)C1 (stereo not drawn) [Example 273] | < 100 | 1000 to 10000
15 | CCN(Cc1cn2ccccc2n1)C(=O)c1cc2c(cc1F)nc(N)c1c(C)ncn12 [Example 274] | 100 to 1000 | 1000 to 10000
16 | Cc1ncc2c(N)nc3cc(F)c(C(=O)N(Cc4nc5ccc(C(F)(F)F)cc5[nH]4)CC(C)C)cc3n12 [Example 276] | 100 to 1000 | 1000 to 10000
17 | Cc1ncn2c1c(N)nc1cc(F)c(C(=O)N(Cc3cn4ccccc4n3)CC(C)C)cc12 [Example 277] | < 100 | 1000 to 10000
18 | COC1CCCC1N(Cc1cn2ccccc2n1)C(=O)c1cc2c(cc1F)nc(N)c1c(C)ncn12 (stereo not drawn) [Example 278] | < 100 | 1000 to 10000
19 | CCN(Cc1cn2ccccc2n1)C(=O)c1ccc2nc(N)c3ncc(C)n3c2c1 [Example 279] | 100 to 1000 | 1000 to 10000
20 | Cc1ncn2c1c(N)nc1cc(F)c(C(=O)N(Cc3cn4cc(C(F)(F)F)ccc4n3)C3CCC3O)cc12 (stereo not drawn) [Example 280] | 100 to 1000 | 1000 to 10000

Row | Compound | IC50 [1] [nM] | IC50 [2] [nM]
21 | Cc1ncn2c1c(N)nc1cc(F)c(C(=O)N(Cc3cn4cc(C(F)(F)F)ccc4n3)CC(C)C)cc12 [Example 282] | < 100 | 1000 to 10000
22 | COC1CCC1N(Cc1cn2cc(C(F)(F)F)ccc2n1)C(=O)c1cc2c(cc1F)nc(N)c1c(C)ncn12 (stereo not drawn) [Example 284] | < 100 | 100 to 1000
23 | COCC(C)N(Cc1cn2cc(C(F)(F)F)ccc2n1)C(=O)c1cc2c(cc1F)nc(N)c1c(C)ncn12 (stereo not drawn) [Example 285, 4-Amino-7-fluoro-N-(1-methoxypropan-2-yl)-3-methyl-N-((6-(trifluoromethyl)imidazolo[1,2-a]pyridin-2-yl)methyl)imidazo[1,5-a]quinoxalin-8-carboxamide] | < 100 | 100 to 1000
24 | COC1CCC1N(Cc1cn2cc(C(F)(F)F)ccc2n1)C(=O)c1ccc2nc(N)c3c(C)ncn3c2c1 (stereo not drawn) [Example 286] | < 100 | 1000 to 10000
25 | COCC(C)N(Cc1cn2cc(C(F)(F)F)ccc2n1)C(=O)c1ccc2nc(N)c3c(C)ncn3c2c1 (stereo not drawn) [Example 288] | < 100 | 1000 to 10000
26 | Cc1cnn2c1c(N)nc1ccc(C(=O)N(Cc3cn4cc(C(F)(F)F)ccc4n3)CC(C)C)cc12 [Example 290] | < 100 | 1000 to 10000
27 | Cc1ncn2c1c(N)nc1ccc(C(=O)N(c3cnn(C)c3)C(C)c3cn4cc(C(F)(F)F)ccc4n3)cc12 (stereo not drawn) [Example 292] | 100 to 1000 | 1000 to 10000
28 | Cc1ncn2c1c(N)nc1ccc(C(=O)N(Cc3cn4cc(C(F)(F)F)ccc4n3)c3cnn(C)c3)cc12 [Example 293] | 100 to 1000 | 1000 to 10000
29 | COC1CCCC1N(Cc1cn2cc(C(F)(F)F)ccc2n1)C(=O)c1ccc2nc(N)c3c(C)ncn3c2c1 (stereo not drawn) [Example 294] | < 100 | 1000 to 10000
30 | Cc1ncn2c1c(N)nc1ccc(C(=O)N(CC(C)C)C(C)c3cn4cc(C(F)(F)F)ccc4n3)cc12 (stereo not drawn) [Example 296] | 100 to 1000 | 1000 to 10000
31 | Cc1ncn2c1c(N)nc1ccc(C(=O)N(Cc3cn4ccccc4n3)CC(C)C)cc12 [Example 297] | < 100 | 1000 to 10000
32 | CCN(C(=O)c1ccc2nc(N)c3c(C)ncn3c2c1)C(C)c1cn2ccccc2n1 (stereo not drawn) [Example 298] | 100 to 1000 | 1000 to 10000
33 | Cc1ncn2c1c(N)nc1ccc(C(=O)N(Cc3cn4cc(C(F)(F)F)ccc4n3)CC(C)C)cc12 [Example 299] | < 100 | 1000 to 10000
34 | Cc1ncc2c(N)nc3ccc(C(=O)N(Cc4cn5cc(C(F)(F)F)ccc5n4)c4c(F)cnn4C)cc3n12 [Example 300] | < 100 | 1000 to 10000
35 | Cc1ncc2c(N)nc3cnc(C(=O)N(Cc4cn5cc(C(F)(F)F)ccc5n4)c4c(F)cnn4C)cc3n12 [Example 302] | < 100 | 100 to 1000
36 | Cc1ncc2c(N)nc3cc(F)c(C(=O)N(Cc4cn5cc(C(F)F)ccc5n4)c4c(F)cnn4C)cc3n12 [Example 303] | < 100 | 100 to 1000
37 | CC(c1ncccn1)N(Cc1nc2cnccc2s1)C(=O)c1ccc2nc(N)c3c(c2c1)COC3 (stereo not drawn) [Example 304, 4-Amino-N-(1-(pyrimidin-2-yl)ethyl)-N-(thiazolo[4,5-c]pyridin-2-ylmethyl)-1,3-dihydrofurano[3,4-c]quinolin-8-carboxamide] | < 100 | 100 to 1000
38 | Cc1nn(C)cc1N(Cc1cn2cc(C(F)(F)F)ccc2n1)C(=O)c1ccc2nc(N)c3c(c2c1)CO[C@@H]3C [Example 305, (3R)-4-Amino-N-(1,3-dimethylpyrazol-4-yl)-3-methyl-N-[[6-(trifluoromethyl)imidazo[1,2-a]pyridin-2-yl]methyl]-1,3-dihydrofurano[3,4-c]quinolin-8-carboxamide] | < 100 | 1000 to 10000
39 | Cc1nn(C)cc1N(Cc1cn2cc(C(F)(F)F)ccc2n1)C(=O)c1ccc2nc(N)c3c(c2c1)COC3C (stereo not drawn) [Example 313, 4-Amino-N-(1,3-dimethylpyrazol-4-yl)-3-methyl-N-[[6-(trifluoromethyl)imidazolo[1,2-a]pyridin-2-yl]methyl]-1,3-dihydrofurano[3,4-c]quinolin-8-carboxamide] | < 100 | 1000 to 10000
